In patent US20150353495A1 (PORTOLA PHARMACEUTICALS, INC., priority 2010, published 2015):
Where a name gives a salt, the structure may show the parent alone. Each block holds one molecule with its values, some of them ahead of it.

Key:
[1] = biological target: T1, JAK2 (Homo sapiens, UniProt O60674); experiment: Z'-LYTE kinase assay JAK2; format: biochemical
T1 construct: 5 μl of catalytic domain recombinant Kinase enzyme+Tyr peptide substrate (Invitrogen, CA); purchased Invitrogen
How it was run: (§1)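 Catalytic-domain recombinant kinase was incubated with Tyr6 FRET peptide, ATP and compound (1% DMSO final) for 1 h at room temperature. Protease development followed for 1 h, cleaving only non-phosphorylated peptide. Inhibition of phosphorylation was read as coumarin/fluorescein FRET fluorescence.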

[2] = biological target: T2, JAK3 (Homo sapiens, UniProt P52333); experiment: Z'-LYTE kinase assay JAK3; format: biochemical
T2 construct: 5 μl of catalytic domain recombinant Kinase enzyme+Tyr peptide substrate (Invitrogen, CA); purchased Invitrogen
T2 sequence (P52333 822-1111 limits assumed): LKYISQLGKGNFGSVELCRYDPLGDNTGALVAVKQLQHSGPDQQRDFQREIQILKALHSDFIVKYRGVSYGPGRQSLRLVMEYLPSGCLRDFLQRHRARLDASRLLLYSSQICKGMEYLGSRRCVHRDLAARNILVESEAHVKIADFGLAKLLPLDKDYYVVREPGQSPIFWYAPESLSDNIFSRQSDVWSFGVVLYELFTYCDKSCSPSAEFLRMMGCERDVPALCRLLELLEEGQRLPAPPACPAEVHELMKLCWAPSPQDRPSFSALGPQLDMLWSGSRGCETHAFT
How it was run: as §1

[3] = biological target: T3, JAK1 (Homo sapiens, UniProt P23458); experiment: Z'-LYTE kinase assay JAK1; format: biochemical
T3 construct: 5 μl of catalytic domain recombinant Kinase enzyme+Tyr peptide substrate (Invitrogen, CA); purchased Invitrogen
T3 sequence (P23458 875-1153 limits assumed): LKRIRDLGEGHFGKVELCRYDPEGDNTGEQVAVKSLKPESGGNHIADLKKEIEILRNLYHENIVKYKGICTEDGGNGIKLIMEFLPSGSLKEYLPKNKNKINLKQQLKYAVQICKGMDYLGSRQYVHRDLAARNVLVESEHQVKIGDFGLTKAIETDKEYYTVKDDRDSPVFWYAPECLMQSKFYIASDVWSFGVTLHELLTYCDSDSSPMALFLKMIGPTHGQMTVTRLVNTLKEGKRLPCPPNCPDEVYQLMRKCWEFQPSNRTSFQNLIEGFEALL
How it was run: as §1

[4] = biological target: T4, TYK2 (Homo sapiens, UniProt P29597); experiment: Z'-LYTE kinase assay TYK2; format: biochemical
T4 construct: 5 μl of catalytic domain recombinant Kinase enzyme+Tyr peptide substrate (Invitrogen, CA); purchased Invitrogen
T4 sequence (P29597 897-1176 limits assumed): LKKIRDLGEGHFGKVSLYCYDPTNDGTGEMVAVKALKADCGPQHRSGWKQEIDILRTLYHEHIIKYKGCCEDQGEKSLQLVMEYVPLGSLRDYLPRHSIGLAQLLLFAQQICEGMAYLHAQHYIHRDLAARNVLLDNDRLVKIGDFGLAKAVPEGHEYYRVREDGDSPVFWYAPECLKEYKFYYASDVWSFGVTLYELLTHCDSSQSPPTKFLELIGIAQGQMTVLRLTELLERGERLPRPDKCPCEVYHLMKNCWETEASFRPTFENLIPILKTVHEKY
How it was run: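 Recombinant catalytic-domain TYK2 with Tyr6 peptide in Z′-LYTE FRET format, 1% DMSO final, kinase reaction 1 h at room temperature, then protease development 1 h. Fluorescence read at 445/520 nm (excitation 400 nm), percent phosphorylation vs no-inhibitor control, IC50 from 4-parameter logistic fit.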

[5] = system: JAK1/3 signaling to STAT6 in Ramos B cells; experiment: IL4 stimulation of JAK1/3 signaling to STAT6 in Ramos B cells (pSTAT6 Y641, FACS); format: cell-based; details: Homo sapiens; for inhibition at 0.2 µM: 0.2 uM compound, read-out: IL-4/STAT6 in Ramos Percent Inhibition at 0.2 uM; for inhibition at 1 µM: 1.0 uM compound, read-out: IL-4/STAT6 in Ramos Percent Inhibition at 1.0 uM
Description: IL4 stimulation of JAK1/3 signaling to STATE in Ramos B cells:
As an alternative strategy to measure effect of JAK3 inhibitors on JAK1/3 dependent cytokine signaling pathways, IL4 stimulation of the Ramos Burkett's B cell line is used. IL4 engages a receptor consisting of the IL4 receptor alpha chain and the common gamma chain. […] Ramos B cells are suspended in tissue culture media containing 10% fetal calf serum at 10×10̂6 cells/ml. 100 μl aliquots are pre-treated for 1 hour with various concentrations of compound, and then stimulated for 15 minutes with 15 ng IL4. The signaling reaction is terminated by fixing in 2% paraformaldehyde for 10 minutes at room temperature. Fixed cells are then washed and permeablized by suspension in 100% methanol at −80° C. Following overnight incubation at 4° C., cells are washed and resuspended in PBS containing 0.5% bovine serum albumin containing pSTAT6 Y641-PE conjugated antibody. After 1 hour incubation, cells are washed and the extent of STAT6 phosphorlyation in Ramos cells is measured by FACS analysis.

T1 sequence (O60674 849-1124 limits assumed): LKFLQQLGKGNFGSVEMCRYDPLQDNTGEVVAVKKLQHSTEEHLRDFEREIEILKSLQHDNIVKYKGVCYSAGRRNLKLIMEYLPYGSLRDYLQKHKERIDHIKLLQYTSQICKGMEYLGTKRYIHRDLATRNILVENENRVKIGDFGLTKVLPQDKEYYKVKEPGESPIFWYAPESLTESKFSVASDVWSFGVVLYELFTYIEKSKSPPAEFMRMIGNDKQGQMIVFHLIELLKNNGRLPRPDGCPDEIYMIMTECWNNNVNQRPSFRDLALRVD

Compound: COc1cc(Nc2cc(NCc3cccc(F)c3)c(C(N)=O)cn2)ccc1N1CCCC1=O [Example 63, 4-(3-fluorobenzylamino)-6-(3-methoxy-4-(2-oxopyrrolidin-1-yl)phenylamino)nicotinamide]
IC50 [1]: 100 to 1000 nM | IC50 [2]: 1 to 10 nM | IC50 [3]: 100 to 1000 nM | IC50 [4]: > 1000 nM | inhibition at 0.2 µM [5]: 32% | inhibition at 1 µM [5]: 46%

Compound: NC(=O)c1cnc(Nc2ccc(N3CCCCC3=O)cc2)cc1NCc1cccc(F)c1 [Example 64, 4-(3-fluorobenzylamino)-6-(4-(2-oxopiperidin-1-yl)phenylamino)nicotinamide]
IC50 [1]: 10 to 100 nM | IC50 [2]: 1 to 10 nM | IC50 [3]: 100 to 1000 nM | IC50 [4]: 100 to 1000 nM | inhibition at 0.2 µM [5]: 32% | inhibition at 1 µM [5]: 50%

Compound: NC(=O)c1cnc(Nc2cccc(N3CCOCC3)c2)cc1NCc1cccc(F)c1 [Example 65, 4-(3-fluorobenzylamino)-6-(3-morpholinophenylamino)nicotinamide]
IC50 [1]: 10 to 100 nM | IC50 [2]: 1 to 10 nM | IC50 [3]: 100 to 1000 nM | IC50 [4]: > 1000 nM | inhibition at 0.2 µM [5]: 28% | inhibition at 1 µM [5]: 49%

Compound: NC(=O)c1cnc(Nc2ccc(C3CCNCC3)cc2)cc1NCc1cccc(F)c1 [Example 70, 4-(3-fluorobenzylamino)-6-(4-(piperidin-4-yl)phenylamino)nicotinamide]
IC50 [1]: 10 to 100 nM | IC50 [2]: 1 to 10 nM | IC50 [3]: 100 to 1000 nM | IC50 [4]: 100 to 1000 nM | inhibition at 0.2 µM [5]: 23% | inhibition at 1 µM [5]: 45%

Compound: NC(=O)c1cnc(Nc2ccc(N3CCCCC3=O)cc2)cc1NCc1ccccc1F [Example 71, 4-(2-fluorobenzylamino)-6-(4-(2-oxopiperidin-1-yl)phenylamino)nicotinamide]
IC50 [1]: 100 to 1000 nM | IC50 [2]: 1 to 10 nM | IC50 [3]: 100 to 1000 nM | IC50 [4]: 100 to 1000 nM | inhibition at 0.2 µM [5]: 22% | inhibition at 1 µM [5]: 37%

Compound: NC(=O)c1cnc(Nc2cccc(OCCN3CCCC3)c2)cc1NCc1ccccc1F [Example 72, 4-(2-fluorobenzylamino)-6-(3-(2-(pyrrolidin-1-yl)ethoxy)phenylamino)nicotinamide]
IC50 [1]: 100 to 1000 nM | IC50 [2]: 1 to 10 nM | IC50 [3]: 100 to 1000 nM | IC50 [4]: 100 to 1000 nM | inhibition at 0.2 µM [5]: 27% | inhibition at 1 µM [5]: 54%

Compound: NC(=O)c1cnc(Nc2ccc(N3CCOCC3)cc2)cc1NCc1ccccc1F [Example 73, 4-(2-fluorobenzylamino)-6-(4-morpholinophenylamino)nicotinamide]
IC50 [1]: 10 to 100 nM | IC50 [2]: 1 to 10 nM | IC50 [3]: 100 to 1000 nM | IC50 [4]: 100 to 1000 nM | inhibition at 0.2 µM [5]: 23% | inhibition at 1 µM [5]: 53%

Compound: NC(=O)c1cnc(Nc2ccc(N3CCCCC3)cc2)cc1NCc1ccccc1F [Example 74, 4-(2-fluorobenzylamino)-6-(4-(piperidin-1-yl)phenylamino)nicotinamide]
IC50 [1]: 100 to 1000 nM | IC50 [2]: 10 to 100 nM | IC50 [3]: > 1000 nM | IC50 [4]: 100 to 1000 nM | inhibition at 0.2 µM [5]: 21% | inhibition at 1 µM [5]: 43%

Compound: NC(=O)c1cnc(Nc2ccc(N3CCCCC3)cc2)cc1N[C@H](CO)c1ccccc1 [Example 75, (S)-4-(2-hydroxy-1-phenylethylamino)-6-(4-(piperidin-1-yl)phenylamino)nicotinamide]
IC50 [1]: > 1000 nM | IC50 [2]: 10 to 100 nM | IC50 [3]: > 1000 nM | IC50 [4]: > 1000 nM | inhibition at 0.2 µM [5]: 11% | inhibition at 1 µM [5]: 26%

Compound: C[N+]1(C)CCC(c2ccc(Nc3cc(NCc4cccc(F)c4)c(C(N)=O)cn3)cc2)CC1 [Example 78, 4-(4-(5-carbamoyl-4-(3-fluorobenzylamino)pyridin-2-ylamino)phenyl)-1,1-dimethylpiperidinium formate]
IC50 [1]: 10 to 100 nM | IC50 [2]: 1 to 10 nM | IC50 [3]: 100 to 1000 nM | IC50 [4]: 100 to 1000 nM | inhibition at 1 µM [5]: 14%

Compound: NC(=O)c1cnc(Nc2ccc(OCC(=O)N3CCOCC3)cc2)cc1NCc1ccccc1 [Example 80, 4-(benzylamino)-6-(4-(2-morpholino-2-oxoethoxy)phenylamino)nicotinamide]
IC50 [1]: 100 to 1000 nM | IC50 [2]: 10 to 100 nM | IC50 [3]: > 1000 nM | IC50 [4]: > 1000 nM | inhibition at 0.2 µM [5]: 23% | inhibition at 1 µM [5]: 43%

Compound: NC(=O)c1cnc(Nc2ccc(OCCN3CCCCC3)cc2)cc1NCc1ccccc1 [Example 81, 4-(benzylamino)-6-(4-(2-(piperidin-1-yl)ethoxy)phenylamino)nicotinamide]
IC50 [1]: 100 to 1000 nM | IC50 [2]: 10 to 100 nM | IC50 [3]: > 1000 nM | IC50 [4]: > 1000 nM | inhibition at 0.2 µM [5]: 29% | inhibition at 1 µM [5]: 48%

Compound: CN(C)C(=O)c1ccc(Nc2cc(NCc3cc(F)ccc3F)c(C(N)=O)cn2)cc1 [Example 92, 4-(2,5-difluorobenzylamino)-6-(4-(dimethylcarbamoyl)phenylamino)nicotinamide]
IC50 [1]: 10 to 100 nM | IC50 [2]: 1 to 10 nM | IC50 [3]: 100 to 1000 nM | IC50 [4]: 100 to 1000 nM | inhibition at 0.2 µM [5]: 41% | inhibition at 1 µM [5]: 67%

Further lines, with some results ahead:

IC50 [1]: 10 to 100 nM | IC50 [2]: 1 to 10 nM | IC50 [3]: 100 to 1000 nM | IC50 [4]: 100 to 1000 nM
Compound: NC(=O)c1cnc(Nc2ccc(N3CCCCC3=O)cc2)cc1NCc1cc(F)ccc1F [Example 94, 4-(2,5-difluorobenzylamino)-6-(4-(2-oxopiperidin-1-yl)phenylamino)nicotinamide]
inhibition at 0.2 µM [5]: 35% | inhibition at 1 µM [5]: 62%

IC50 [1]: 100 to 1000 nM | IC50 [2]: 1 to 10 nM | IC50 [3]: 100 to 1000 nM | IC50 [4]: 100 to 1000 nM
Compound: NC(=O)c1cnc(Nc2ccc(C3CCNCC3)cc2)cc1NCc1ccccc1F [Example 106, 4-(2-fluorobenzylamino)-6-(4-(piperidin-4-yl)phenylamino)nicotinamide]
inhibition at 0.2 µM [5]: 28% | inhibition at 1 µM [5]: 49%

IC50 [1]: 100 to 1000 nM | IC50 [2]: 1 to 10 nM | IC50 [3]: 100 to 1000 nM | IC50 [4]: 100 to 1000 nM
Compound: NC(=O)c1cnc(Nc2ccc(C3CCN(C4CCCC4)CC3)cc2)cc1NCc1ccccc1F [Example 109, 6-(4-(1-cyclopentylpiperidin-4-yl)phenylamino)-4-(2-fluorobenzylamino)nicotinamide]
inhibition at 0.2 µM [5]: 23% | inhibition at 1 µM [5]: 60%

IC50 [1]: 100 to 1000 nM | IC50 [2]: 10 to 100 nM | IC50 [3]: 100 to 1000 nM | IC50 [4]: 100 to 1000 nM
Compound: CC(=O)N1CCC(c2ccc(Nc3cc(NCc4ccccc4F)c(C(N)=O)cn3)cc2)CC1 [Example 115, 6-(4-(1-acetylpiperidin-4-yl)phenylamino)-4-(2-fluorobenzylamino)nicotinamide]
inhibition at 0.2 µM [5]: 31% | inhibition at 1 µM [5]: 64%

IC50 [1]: 10 to 100 nM | IC50 [2]: 1 to 10 nM | IC50 [3]: 100 to 1000 nM | IC50 [4]: 100 to 1000 nM
Compound: COCC(=O)N1CCC(c2ccc(Nc3cc(NCc4ccccc4F)c(C(N)=O)cn3)cc2)CC1 [Example 116, 4-(2-fluorobenzylamino)-6-(4-(1-(2-methoxyacetyl)piperidin-4-yl)phenylamino)nicotinamide]
inhibition at 0.2 µM [5]: 25% | inhibition at 1 µM [5]: 43%

IC50 [1]: 100 to 1000 nM | IC50 [2]: 1 to 10 nM | IC50 [3]: 100 to 1000 nM | IC50 [4]: 100 to 1000 nM
Compound: N#CCC(=O)N1CCC(c2ccc(Nc3cc(NCc4ccccc4F)c(C(N)=O)cn3)cc2)CC1 [Example 117, 6-(4-(1-(2-cyanoacetyl)piperidin-4-yl)phenylamino)-4-(2-fluorobenzylamino)nicotinamide]
inhibition at 0.2 µM [5]: 43% | inhibition at 1 µM [5]: 67%

IC50 [1]: 100 to 1000 nM | IC50 [2]: 1 to 10 nM | IC50 [3]: 100 to 1000 nM | IC50 [4]: 10 to 100 nM
Compound: CC(=O)N1CCN(c2ccc(Nc3cc(NCc4cccs4)c(C(N)=O)cn3)cc2)CC1 [Example 122, 6-(4-(4-acetylpiperazin-1-yl)phenylamino)-4-(thiophen-2-ylmethylamino)nicotinamide]
inhibition at 0.2 µM [5]: 34% | inhibition at 1 µM [5]: 57%

IC50 [1]: 100 to 1000 nM | IC50 [2]: 1 to 10 nM | IC50 [3]: 100 to 1000 nM | IC50 [4]: > 1000 nM
Compound: NC(=O)c1cnc(Nc2cccc(OCCN3CCOCC3)c2)cc1NCc1cccc(F)c1 [Example 228]
inhibition at 0.2 µM [5]: 24% | inhibition at 1 µM [5]: 48%

IC50 [1]: 100 to 1000 nM | IC50 [2]: 1 to 10 nM | IC50 [3]: 100 to 1000 nM | IC50 [4]: 100 to 1000 nM
Compound: CC(=O)N1CCN(c2ccc(Nc3cc(NCc4cccnc4)c(C(N)=O)cn3)cc2)CC1 [Example 233]
inhibition at 0.2 µM [5]: 17% | inhibition at 1 µM [5]: 33%
